Bounds are passed on as bounds.

The subject of data set [1] is human hepatoma cells (HepG2). Nature of the data set: tumor cell proliferation inhibition test, MTT method, HepG2. The note with it: 48 hours treatment, read-out: Half Inhibitory Concentration IC50 HepG2. It is filed as cell-based. The procedure:
(§1) The compounds of the present invention were subjected to tumor cell proliferation inhibition test, and conventional MTT method was used.
(§2) Cell lines: human hepatoma cells (HepG2), human lung cancer cells (A-549), human gastric cancer cells (SGC-7901). The culture medium was DMEM+15% NBS+double antibody.
(§3) Sample solution preparation: after dissolving with DMSO (Merck), PBS (−) was added to obtain 100 μmol/L solution or homogeneous suspension. The solution was diluted with PBS (−) in DMSO to a final concentration of 0.1, 1, 10, 20, 40, 60, 80, 100 μmol/L.
(§4) Gossypol was used as control solution, prepared under the same condition.
(§5) Cell culture: adherent growth Tumor cells were cultured in 1640 medium containing 10% inactivated neonatal bovine serum and penicillin, streptomycin (1 million U/L), placed in carbon dioxide incubator at 37° C., 5% CO2, and saturated humidity. Cells were treated serially passaged 2-3 times. The first culture was washed with PBS 2 times, and digested with trypsin. Fresh culture medium was added evenly, cells were adjusted to a appropriate concentration and transferred into a new culture flask. Cell in an exponential phase were chosen for the tests.
(§6) Experimental Principle: Living cells mitochondria in the dehydrogenase can reduce yellow MTT to water-insoluble blue-violet product MT (MTT formazan), deposited in the cells. The amount of production is proportional to the number of living cells. […] DMSO can dissolve blue violet crystals, and the color depth is proportional to the amount contained, so the absorbance measured by the microplate reader can reflect the cell viability.
(§7) Methods: The exponential phase cells were digested and counted and seeded in 96-well plates at a density of 2×10^4/mL at 100 μl per well. After 24 hours of incubation, the cells to be tested were treated with 0.1, 1, 10, 20, 40, 60, 80, 100 μmol/L of the compounds. Each experimental group had 5 wells in each concentration, and the culture medium containing 0.4% DMSO was used as control. After 48 hours, the supernatant was discarded, and 100 μl of MTT ((2-(4,5-dimethyl-2-thiazolyl)-3,5-diphenyl-2H-tetrazole hydrobromide) (1 mg/mL) was added to each well. After another 4 hours, the supernatant was discarded, and 100 μl of DMSO was added to each well. After mixing, the absorbance was measured at 570 nm using a microplate reader. An IC50 calculation software was used to determine the half inhibitory concentration (IC50).

Data set [2] concerns human lung cancer cells (A-549). Put plainly: tumor cell proliferation inhibition test, MTT method, A-549. The note with it: A549 cells, 48 hours treatment, read-out: Half Inhibitory Concentration IC50 A549. It is filed as cell-based. The procedure:
as §1, §2, §3, §4, §5, §6, §7

For data set [3], the system named is human gastric cancer cells (SGC-7901). Nature of the data set: tumor cell proliferation inhibition test, MTT method, SGC-7901. In kind it is cell-based. To be noted: SGC-7901 cells, 48 hours treatment, read-out: Half Inhibitory Concentration IC50 SGC-7901. Here is the method: as §1, §2, §3, §4, §5, §6, §7
Data set [4] deals with HepG2, A-549, SGC-7901 tumor cells. Nature of the data set: anti-tumor activity test, MTT method, summary over the three cell lines tested. It is filed as cell-based, human. The procedure: as §1, §2, §3, §4
Cell culture: adherent growth Tumor cells were cultured in 1640 medium containing 10% inactivated neonatal bovine serum and penicillin, streptomycin (1 million U/L), placed in carbon dioxide incubator at 37° C., 5% CO2, and saturated humidity. Cells were treated serially passaged 2-3 times. The first culture was washed with PBS 2 times, and digested with trypsin. Fresh culture medium was added evenly, cells were adjusted to a appropriate concentration and transferred into a new culture flask. […]
Experimental Principle: Living cells mitochondria in the dehydrogenase can reduce yellow MTT to water-insoluble blue-violet product MT (MTT formazan), deposited in the cells. […] DMSO can dissolve blue violet crystals, and the color depth is proportional to the amount contained, so the absorbance measured by the microplate reader can reflect the cell viability.
Methods: The exponential phase cells were digested and counted and seeded in 96-well plates at a density of 2×10^4/mL at 100 μl per well. […] After 48 hours, the supernatant was discarded, and 100 μl of MTT ((2-(4,5-dimethyl-2-thiazolyl)-3,5-diphenyl-2H-tetrazole hydrobromide) (1 mg/mL) was added to each well. After another 4 hours, the supernatant was discarded, and 100 μl of DMSO was added to each well. After mixing, the absorbance was measured at 570 nm using a microplate reader. An IC50 calculation software was used to determine the half inhibitory concentration (IC50).

For the molecule `Cc1ccc2c(c1)/C(=N/N=C/c1c(O)c(O)c(C(C)C)c3cc(C)c(-c4c(C)cc5c(C(C)C)c(O)c(O)c(/C=N/N=C6/C(=O)Nc7ccc(C)cc76)c5c4O)c(O)c13)C(=O)N2` [Compound 1, (3Z,3′E)-3,3′-(((1E,1′E)-(1,1′,6,6′,7,7′-hexahydroxy-5,5′-diisopropyl-3,3′-dimethyl-[2,2′-binaphthalene]-8,8′-diyl)bis(methanylylidene))bis(hydrazine-2,1-diylidene))bis(5-methylindolin-2-one)], the melting point worked out at 187.5 °C. Further, the IC50 in data set [1] is more than 100 µM. For the same molecule, the IC50 in data set [2] was more than 100 µM. In data set [3], the IC50 was more than 100 µM.
With `Cc1cc2c(C(C)C)c(O)c(O)c(/C=N/N=C3\C(=O)N(C)c4ccc(Cl)cc43)c2c(O)c1-c1c(C)cc2c(C(C)C)c(O)c(O)c(/C=N/N=C3/C(=O)N(C)c4ccc(Cl)cc43)c2c1O` [Compound 4, (3Z,3′E)-3,3′-(((1E, 1′E)-(1,1′,6,6′,7,7′-hexahydroxy-5,5′-diisopropyl-3,3′-dimethyl-[2,2′-binaphthalene]-8,8′-diyl)bis(methanylylidene))bis(hydrazine-2,1-diylidene))bis(5-chloro-1-methylindolin-2-one)], the melting point is 204.3 °C. In addition, the IC50 in data set [1] is more than 100 µM. Besides, the IC50 in data set [2] was more than 100 µM. Moreover, in data set [3], the IC50 was more than 100 µM.
Molecule `Cc1cc2c(C(C)C)c(O)c(O)c(/C=N/N=C3\C(=O)N(Cc4ccccc4)c4ccccc43)c2c(O)c1-c1c(C)cc2c(C(C)C)c(O)c(O)c(/C=N/N=C3/C(=O)N(Cc4ccccc4)c4ccccc43)c2c1O` [Compound 8, (3Z,3′E)-3,3′-(((1E, 1′E)-(1,1′,6,6′,7,7′-hexahydroxy-5,5′-diisopropyl-3,3′-dimethyl-[2,2′-binaphthalene]-8,8′-diyl)bis(methanylylidene))bis(hydrazine-2,1-diylidene))bis(1-benzylindolin-2-one)] registered a melting point of 219.9 °C. In addition, in data set [1], the IC50 is more than 100 µM. Also, the IC50 in data set [2] was more than 100 µM. The IC50 in data set [3] turned out to be 88.8 ± 3.02 µM.
Consider `CCN1C(=O)/C(=N\N=C\c2c(O)c(O)c(C(C)C)c3cc(C)c(-c4c(C)cc5c(C(C)C)c(O)c(O)c(/C=N/N=C6/C(=O)N(CC)c7ccc(Cl)cc76)c5c4O)c(O)c23)c2cc(Cl)ccc21` [Compound 5, (3Z,3′E)-3,3′-(((1E, 1′E)-(1,1′,6,6′,7,7′-hexahydroxy-5,5′-diisopropyl-3,3′-dimethyl-[2,2′-binaphthalene]-8,8′-diyl)bis(methanylylidene))bis(hydrazine-2,1-diylidene))bis(5-chloro-1-ethylindolin-2-one)], for which the IC50 in data set [1] worked out at 8.92 ± 0.59 µM; in data set [2], 19.3 ± 1.62 µM; in data set [3], 13.7 ± 1.11 µM. Besides, in data set [4], the “antitumor activities (in words)” value was “good activities”.
The molecule `Cc1cc2c(C(C)C)c(O)c(O)c(/C=N/N=C3\C(=O)Nc4ccc(Cl)cc43)c2c(O)c1-c1c(C)cc2c(C(C)C)c(O)c(O)c(/C=N/N=C3/C(=O)Nc4ccc(Cl)cc43)c2c1O` [Compound 2, (3Z,3′E)-3,3′-(((1E,1′E)-(1,1′,6,6′,7,7′-hexahydroxy-5,5′-diisopropyl-3,3′-dimethyl-[2,2′-binaphthalene]-8,8′-diyl)bis(methanylylidene))bis(hydrazine-2,1-diylidene))bis(5-chloroindolin-2-one)] returned a melting point of 190.7 °C. Further, in data set [1], the IC50 was found to be 29.4 ± 2.1 µM. In addition, the IC50 in data set [2] came to 68.3 ± 2.15 µM. Moreover, the IC50 in data set [3] is more than 100 µM.
For `Cc1cc2c(C(C)C)c(O)c(O)c(/C=N/N=C3\C(=O)N(C(C)C)c4ccc(Cl)cc43)c2c(O)c1-c1c(C)cc2c(C(C)C)c(O)c(O)c(/C=N/N=C3/C(=O)N(C(C)C)c4ccc(Cl)cc43)c2c1O` [Compound 6, (3Z,3′E)-3,3′-(((1E,1′E)-(1,1′,6,6′,7,7′-hexahydroxy-5,5′-diisopropyl-3,3′-dimethyl-[2,2′-binaphthalene]-8,8′-diyl)bis(methanylylidene))bis(hydrazine-2,1-diylidene))bis(5-chloro-1-isopropylindolin-2-one)] the same measures were 216.3 °C, more than 100 µM, 66.5 ± 2.53 µM and more than 100 µM.
On to `Cc1cc2c(C(C)C)c(O)c(O)c(/C=N/N=C3\C(=O)N(C)c4ccccc43)c2c(O)c1-c1c(C)cc2c(C(C)C)c(O)c(O)c(/C=N/N=C3/C(=O)N(C)c4ccccc43)c2c1O` [Compound 3, (3Z,3′E)-3,3′-(((1E, 1′E)-(1,1′,6,6′,7,7′-hexahydroxy-5,5′-diisopropyl-3,3′-dimethyl-[2,2′-binaphthalene]-8,8′-diyl)bis(methanylylidene))bis(hydrazine-2,1-diylidene))bis(1-methylindolin-2-one)], for which the IC50 came to 8.67 ± 0.74 µM in data set [1], 7.87 ± 0.91 µM in data set [2] and 16.6 ± 1.46 µM in data set [3]. Moreover, the “antitumor activities (in words)” value in data set [4] is given as “excellent antitumor activities”.
As to `Cc1cc2c(C(C)C)c(O)c(O)c(/C=N/N=C3\C(=O)N(Cc4ccccc4)c4ccc(Cl)cc43)c2c(O)c1-c1c(C)cc2c(C(C)C)c(O)c(O)c(/C=N/N=C3/C(=O)N(Cc4ccccc4)c4ccc(Cl)cc43)c2c1O` [Compound 7, (3Z,3′E)-3,3′-(((1E, 1′E)-(1,1′,6,6′,7,7′-hexahydroxy-5,5′-diisopropyl-3,3′-dimethyl-[2,2′-binaphthalene]-8,8′-diyl)bis(methanylylidene))bis(hydrazine-2,1-diylidene))bis(1-benzyl-5-chloroindolin-2-one)], the IC50 in data set [1] amounted to 14.7 ± 1.12 µM; in data set [2], 16.3 ± 1.21 µM; in data set [3], 12.5 ± 1.93 µM. The “antitumor activities (in words)” value in data set [4] is listed as “good activities”.

A word on the melting point: it is the temperature, or range, at which the solid turns liquid.

Values taken from patent US10729675B2, “Gossypol isatin schiff base compounds with antitumor activities and a method of preparing the same” (SHAANXI UNIVERSITY OF SCIENCE AND TECHNOLOGY, priority 2018, dated 2020).
